Reference: PMC3601065 (PLoS ONE, 2013)
Where no end group is shown, it is not given here.

Tests used:
HLA-A*0201 = HLA-A*0201 (Homo sapiens, UniProt P04439, D140Y/D185E/D98H/E176V/E277Q/G131W/G231S/I119V/I121R/I166T/I218V/L300P/L318F/N151K/N90K/P208A/P217A/Q86G/Q94H/R138H/R169H/T345S); assay: biochemical; assay type: binding

In the case of ILDAHSLYL [IL9], the “cytotoxicity of peptide-specific CD8^+ T cells” value (T2 target cells) is reported as “highly cytotoxic” and the IC50 (HLA-A*0201) is reported as 1.3 nM.
With VLSEWLPVT [VT9] the “cytotoxicity of peptide-specific CD8^+ T cells” value (T2 target cells) was “highly cytotoxic” and the IC50 (HLA-A*0201) was 15 nM.
